Here are results for one compound from patent US20220249637A1, “COMBINATION THERAPY OF A CELL-MEDIATED CYTOTOXIC THERAPY AND AN INHIBITOR OF A PROSURVIVAL BCL2 FAMILY PROTEIN” (Juno Therapeutics, Inc., priority 2019, published 2022).

In one data set the test system is human plasma proteins. The conditions noted are these: cited from earlier work.
The test system of the next data set is RL target cells. The data set is described as follows: Co-culture of tumor cells and CAR T cells, venetoclax added at initiation or 24, 48 or 72 hours later (Example 9): tumor cell killing. In kind it is cell-based, human. The procedure:
FIGS. 14A and 14B show the number of CD3+CAR+ T cells and RL target cells, respectively, following a 6-day co-culture. Various concentrations of an exemplary BCL2 inhibitor were provided in the co-culture at its initiation, or 24, 48, or 72 hours after the initiation of co-culture.
Thus, in some cases, the cytotoic effects of a BCL2 inhibitor, e.g. venetoclax, and a T cell therapy (e.g. CAR T cells) may be synergistic to result in cell death of cells otherwise resistant to treatment with the T cell therapy alone. In some cases, administration of the inhibitor, e.g. venetoclax, may sensitize otherwise resistant cancer cells to CAR T cell-mediated killing when it is administered within or at about 7 days after administration of the cell therapy.

The test system of a further data set is anti-CD19 CAR T cells. Description: CAR T cell viability, ATP luciferin reporter assay after 96 hours anti-idiotypic antibody stimulation. In kind it is cell-based, human. The procedure:
Anti-CD19 CAR-expressing T cell compositions were generated from three human adult donors, substantially as described in Example 1. Anti-CD19 CAR T cells were stimulated for 96 hours with an anti-idiotypic antibody in the presence of an exemplary BCL2 inhibitor venetoclax solubilized in dimethylsulfoxide (DMSO). Control anti-CD19 CAR T cells were stimulated for 96 hours with the anti-idiopathic antibody in the presence of an equal amount of DMSO. Specifically, anti-CD19 CAR-expressing cells were added to the wells of a 96-well plate that had been pre-coated with an anti-idiotypic antibody specific to the scFv of the anti-CD19 CAR-expressing T cells described in Example 1 at a concentration of 30 μg/ml. The cells were cultured in the presence of 5% human serum at 37° C. and 5% CO2. After 96 hours, cells were lysed and ATP from viable cells was detected via a luciferin reporter assay and reported as relative luminescence units. Venetoclax-treated CAR T cell counts were assessed and normalized to DMSO control CAR T cell counts.
Background: A reporter such as luciferase makes a cellular process visible.

Data set [1] relates to cells of the cell therapy (CAR-T cells). The data set is described as follows: Activation induced cell death of cells of the cell therapy in presence of inhibitor. The settings on record: particularly if given at too high of a dosage. In kind it is cell-based. From the text:
In some aspects, the provided methods, combinations and uses provide for or achieve improved or more durable responses or efficacy as compared to alternative methods, such as alternative methods involving only the administration of the immunotherapy or cell therapy but not in combination with an inhibitor of a prosurvival BCL2 family protein (e.g. venetoclax). In some embodiments, the methods are advantageous by virtue of administering an inhibitor of a prosurvival BCL2 family protein (e.g. venetoclax) shortly before (e.g. within 7 days) or concurrently with administration of an immunotherapy or a cell therapy (e.g. T cell therapy, such as CAR-T cell), thereby sensitizing the tumor and/or making the tumor less resistant to, or more susceptible to, treatment with the immunotherapy or cell therapy. […] However, delaying administration of the inhibitor of a prosurvival BCL2 family protein (e.g. venetoclax) until a time after AICD is at or has reached it peak or been reduced after having peaked can avoid detrimental effects on the cells of the cell therapy while substantially improving, e.g. synergistically increasing, T cell-mediated killing of the tumor by cells of the cell therapy (e.g. CAR-T cells).

In another data set the test system is RL spheroids. Description: RL spheroids co-cultured with chronically stimulated anti-CD19 CAR T cells. In kind it is cell-based. The conditions noted are these: 8 days. The procedure:
Anti-CD19 CAR-expressing T cells, generated from healthy donors as described above, were chronically stimulated under conditions to exhaust T cell activity by incubation for 8 days with beads coated in anti-idiotypic (anti-ID) antibody directed against the CAR. After the 8 days of chronic stimulation, the anti-CD19 CAR-expressing T cells were harvested and subsequently co-cultured with RL cells engineered to express NLR for 8 days at an E:T ratio of 1:1. As a control, RL cells were cultured in the absence of anti-CD19 CAR T cells. Subtherapeutic concentrations of the exemplary BCL2 inhibitor venetoclax (0.01 μM or 0.1 μM) were added to the cultures, and the number of cells was assessed over time (FIG. 6A).
In another experiment, spheroids were generated from CD19-expressing RL cells as previously described, and co-cultured for 8 days with anti-CD19 CAR T cells at an E:T ratio of 1:1 and increasing concentrations of venetoclax (0.01 μM, 0.1 μM, or 1.0 μM), or with only corresponding concentrations of venetoclax. As before, the anti-CD19 CAR T cells were chronically stimulated with anti-ID antibody-coated beads prior to co-culture with the RL spheroids. […] Overall, the size of the RL spheroids cultured with both anti-CD19 CAR T cells and venetoclax decreased more, and with lower concentrations of venetoclax, compared to that of RL spheroids cultured with just venetoclax.

Data set [2] has as its system JeKo-1 mantle cell lymphoma cells. Description: JeKo-1 murine model of mantle cell lymphoma. The data set is classed as in vivo, NOD scid gamma (NSG) mice. Here is the method:
NOD scid gamma (NSG) mice were injected intravenously with 2×10^6 JeKo-1 mantle cell lymphoma cells (Day −7) and treated daily with 12.5, 25, 50, or 100 mg/kg of the exemplary BCL2 inhibitor venetoclax for 21 days (Day 0 through Day 21). Tumor burden (FIG. 11A) and body weight (FIG. 11B) were assessed over the course of treatment.
To determine the effects of venetoclax on anti-CD19 CAR T cells in a venetoclax-resistant murine model of MCL, NSG mice were injected intravenously with 2×10^6 JeKo-1 cells on Day −7, and then treated with intravenous infusions of 1×10^6 anti-CD19 CAR T cells, generated substantially as described in previous Example, on Day −1 and Day 0. Venetoclax was administered daily for 21 days (Day 0 to Day 21) at 6.25, 25, or 100 mg/kg. As a control, a subset of mice were only treated with venetoclax. Tumor burden (FIG. 12A), survival (FIGS. 12B and 12C), and CAR T cell number (FIG. 13) were assessed.

Consider `CC1(C)CCC(CN2CCN(c3ccc(C(=O)NS(=O)(=O)c4ccc(NCC5CCOCC5)c([N+](=O)[O-])c4)c(Oc4cnc5[nH]ccc5c4)c3)CC2)=C(c2ccc(Cl)cc2)C1` [venetoclax], for which the plasma protein binding result in the data set on human plasma proteins is listed as “can bind human plasma proteins”. In addition, the “antitumor effects of CAR T cells” value in the data set on RL target cells (inhibitor administered when activation-induced cell death of CAR T cells has peaked (e.g. 2-7 days after CAR T cells), Example 9) is listed as “potent antitumor effects”. In the data set on RL target cells (therapeutic dose administered 48 or 72 hours after initiation of co-culture of tumor cells and CAR T cells), the “sensitization of tumor cells to CAR T cell-mediated killing” value is on record as “able to sensitize the tumor cells to CAR T cell-mediated killing”. In the data set on anti-CD19 CAR T cells (T-cell, average among three donors, 5% human serum), inhibition was half-maximal at 7.9 µM (IC50). Also, the “percentage of viable anti-CD19 CAR-expressing T cells” value in the data set on anti-CD19 CAR T cells (increasing doses) is listed as “decreased with increasing doses of venetoclax”. Besides, in data set [1], the “activation induced cell death (AICD) of cells of the cell therapy” value is “can exacerbate activation induced cell death (AICD)”. The tumor size entry in the data set with RL spheroids (venetoclax 0.01, 0.1 or 1.0 μM in the absence of CAR T cells) was “decreases in tumor size were only observed with 1 μM venetoclax”; in the data set with RL spheroids (with chronically stimulated CAR T cells E:T 1:1, venetoclax 0.01, 0.1 or 1.0 μM) it was “greater decreases in tumor size were seen with increasing concentrations of venetoclax”. Further, in data set [2] (venetoclax 6.25, 25 or 100 mg/kg daily in combination with CAR T cells, vs untreated and venetoclax-only mice), the tumor volume result is “reduced tumor volume at all measured time points”. In data set [2] (venetoclax alone, 6.25, 25 or 100 mg/kg daily for 21 days), the tumor burden result is “increased similarly in untreated mice and mice treated with venetoclax alone”. For the same compound, the “tumor burden (bioluminescence imaging)” value in data set [2] (venetoclax alone, 12.5, 25, 50 or 100 mg/kg daily for 21 days) was “resistant to treatment with venetoclax alone, regardless of dose level”.
